The text below walks through data of publication PMC11876601 (Molecular Systems Biology, 2025).

Common to all, as to assay: cells
Holding throughout (set-up): ATPlite luminescence viability of PDAC cell lines, 11-dose single-agent curves, 4-parameter fit

One assay relates to AsPC-1. Conditions: Homo sapiens, ASPC1, 72 h, read-out: EC50 [nM]. A digest of the protocol: (§1)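 cells (1000 to 5000 per well) seeded 24 h before drug addition in a combination screen at 0.2% final DMSO. Controls were drug-free wells (negative) and 5 µM staurosporine (positive).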
The next assay relates to BxPC-3. To be noted: Homo sapiens, BXPC-3, 72 h, read-out: EC50 [nM]. The procedure, abridged:
as §1

Another assay concerns Capan-1. Conditions: Homo sapiens, CAPAN-1, 72 h, read-out: EC50 [nM]. A digest of the protocol: as §1
For another assay, the system named is Colo-357. To be noted: Homo sapiens, COLO357, 72 h, read-out: EC50 [nM]. The procedure, abridged:
as §1

A further assay has as its system Dan-G. To be noted: 72 h, read-out: EC50 [nM]. The procedure, abridged: as §1
The next assay deals with FAMPAC. To be noted: 72 h, read-out: EC50 [nM]. The procedure, abridged:
as §1

The next assay concerns HPDE. Conditions: HPDE, 72 h, read-out: EC50 [nM]. A digest of the protocol:
as §1

A further assay concerns HuP-T4. To be noted: Homo sapiens, HuP-T4, 72 h, read-out: EC50 [nM]. The procedure, abridged:
as §1

The subject of a further assay is MiaPaCa-2. To be noted: Homo sapiens, MIA PaCa-2, 72 h, read-out: EC50 [nM]. A digest of the protocol:
as §1

The test system of another assay is PANC-1. Conditions: Homo sapiens, PANC-1, 72 h, read-out: EC50 [nM]. A digest of the protocol: as §1
For a further assay, the system named is PSN-1. To be noted: Homo sapiens, PSN1, 72 h, read-out: EC50 [nM]. A digest of the protocol:
as §1

Another assay relates to PaTu-8988-T. To be noted: Homo sapiens, PaTu 8988t, 72 h, read-out: EC50 [nM]. The procedure, abridged: as §1
The next assay has as its system Suit2-07. To be noted: 72 h, read-out: EC50 [nM]. The procedure, abridged: as §1

Some results are limits rather than exact numbers.

In general, EC50 refers to the midpoint of the concentration-response curve. In the case of `COc1cc(Nc2c(C#N)cnc3cc(OCCCN4CCN(C)CC4)c(OC)cc23)c(Cl)cc1Cl` [Bosutinib], the EC50 with AsPC-1 came to 5990 nM; in the assay on BxPC-3, 2170 nM; in the assay on Capan-1, 6130 nM; in the assay with Colo-357, 5090 nM; in the assay with Dan-G it was 2910 nM; with FAMPAC, 3030 nM. The EC50 with HPDE was 2140 nM; in the assay with HuP-T4, greater than 10000 nM; in the assay with MiaPaCa-2 it was greater than 10000 nM; with PANC-1 it was greater than 10000 nM; in the assay on PSN-1, 4490 nM; in the assay with PaTu-8988-T it was greater than 10000 nM. Also, the EC50 in the assay with Suit2-07 is 2330 nM.

Consider `CC(=O)c1cc2c(o1)C(=O)c1ccccc1C2=O` [Napabucasin], for which the EC50 in the assay with AsPC-1 is 644 nM; in the assay on BxPC-3, 493 nM; in the assay with Capan-1, 6090 nM; in the assay on Colo-357, 6740 nM; in the assay on Dan-G, 5300 nM; with FAMPAC, 322 nM. Moreover, the concentration for a half-maximal effect (EC50) with HPDE was determined as 390 nM; in the assay on HuP-T4, 1650 nM; in the assay on MiaPaCa-2, 176 nM; with PANC-1, 1840 nM; in the assay on PSN-1, 588 nM; with PaTu-8988-T it was 220 nM. Also, the concentration for a half-maximal effect (EC50) with Suit2-07 is greater than 10000 nM.

Regarding `CN1CCN(c2ccc(C(=O)Nc3n[nH]c4ccc(Cc5cc(F)cc(F)c5)cc34)c(NC3CCOCC3)c2)CC1` [Entrectinib], the EC50 is 5960 nM in the assay with AsPC-1; 3500 nM with BxPC-3; 6260 nM with Capan-1; 4900 nM with Colo-357; greater than 10000 nM with Dan-G; 5900 nM in the assay with FAMPAC. The concentration for a half-maximal effect (EC50) in the assay on HPDE was 3900 nM; in the assay on HuP-T4 it was greater than 10000 nM; in the assay on MiaPaCa-2 it was 2720 nM; with PANC-1 it was 5790 nM; with PSN-1 it was greater than 10000 nM; with PaTu-8988-T, greater than 10000 nM. Further, the EC50 in the assay on Suit2-07 is greater than 10000 nM.

With `C[C@@H]1CN(C(=O)c2ccc(NC(=O)c3cc(O[C@H](C)c4c(Cl)ccc(F)c4Cl)c(N)nn3)cc2)C[C@H](C)N1` [Ensartinib], the EC50 with AsPC-1 worked out at 5190 nM; in the assay on BxPC-3 it was 7520 nM; in the assay with Capan-1, 1990 nM; with Colo-357, 2870 nM; in the assay on Dan-G, 2960 nM; in the assay with FAMPAC, 3600 nM. Besides, the EC50 in the assay on HPDE is 4130 nM; in the assay on HuP-T4, 2630 nM; in the assay on MiaPaCa-2 it was 791 nM; in the assay on PANC-1, greater than 10000 nM; in the assay on PSN-1 it was 4440 nM; in the assay on PaTu-8988-T, greater than 10000 nM. Besides, in the assay on Suit2-07, the EC50 was found to be 2000 nM.

Consider `Cc1ccc(NC(=O)c2ccc(CN3CCN(C)CC3)cc2)cc1Nc1nc(-c2cccnc2)cs1` [Masitinib], for which the EC50 in the assay on AsPC-1 is greater than 10000 nM; in the assay on BxPC-3, 3050 nM; in the assay on Capan-1 it was 3950 nM; in the assay with Colo-357, 6650 nM; in the assay with Dan-G, 3880 nM; in the assay with FAMPAC it was greater than 10000 nM. Moreover, the EC50 in the assay with HPDE is 5500 nM; in the assay with HuP-T4, greater than 10000 nM; with MiaPaCa-2 it was 3770 nM; with PANC-1, 3250 nM; with PSN-1, 4380 nM; in the assay on PaTu-8988-T, 4770 nM. Further, the EC50 in the assay on Suit2-07 is greater than 10000 nM.

Take `C1=N/C2=N/c3ccc(OCCN4CCCC4)c(c3)COC/C=C/COCc3cccc(c3)C(=C1)N2` [Pacritinib]: the EC50 in the assay with AsPC-1 stood at 529 nM; in the assay with BxPC-3, 1190 nM; in the assay on Capan-1, 2210 nM; in the assay with Colo-357 it was 1610 nM; with Dan-G it was 2100 nM; in the assay with FAMPAC, 1280 nM. Also, the EC50 came to 1340 nM with HPDE; 2500 nM in the assay on HuP-T4; 475 nM in the assay on MiaPaCa-2; 1780 nM in the assay on PANC-1; 971 nM with PSN-1; 477 nM in the assay on PaTu-8988-T. Further, the EC50 in the assay with Suit2-07 worked out at 654 nM.

For `Cc1ccc(C(=O)Nc2ccc(CN3CCN(C)CC3)c(C(F)(F)F)c2)cc1C#Cc1cnc2cccnn12` [Ponatinib], the EC50 with AsPC-1 is 1160 nM; with BxPC-3 it was 739 nM; in the assay on Capan-1, greater than 10000 nM; in the assay on Colo-357 it was 9250 nM; in the assay on Dan-G, 1200 nM; in the assay on FAMPAC, 830 nM. In addition, the EC50 with HPDE was 1930 nM; with HuP-T4, greater than 10000 nM; in the assay with MiaPaCa-2 it was 335 nM; in the assay on PANC-1, greater than 10000 nM; in the assay on PSN-1, 620 nM; with PaTu-8988-T, 357 nM. In the assay with Suit2-07, the 50% effective concentration (EC50) stood at 618 nM.

Take `C=CC(=O)Nc1cc(Nc2nccc(-c3cn(C)c4ccccc34)n2)c(OC)cc1N(C)CCN(C)C` [Osimertinib]: the EC50 in the assay on AsPC-1 is greater than 10000 nM; in the assay with BxPC-3 it was greater than 10000 nM; in the assay on Capan-1 it was 5860 nM; in the assay with Colo-357, 347 nM; in the assay on Dan-G it was 2560 nM; in the assay with FAMPAC, greater than 10000 nM. For the same compound, the EC50 in the assay on HPDE was 542 nM; with HuP-T4, 5300 nM; in the assay on MiaPaCa-2, greater than 10000 nM; in the assay on PANC-1, greater than 10000 nM; in the assay with PSN-1 it was 5530 nM; with PaTu-8988-T it was greater than 10000 nM. In the assay with Suit2-07, the EC50 is greater than 10000 nM.

On to `Cc1cnc(Nc2ccc(OCCN3CCCC3)cc2)nc1Nc1cccc(S(=O)(=O)NC(C)(C)C)c1` [Fedratinib], for which the EC50 in the assay with AsPC-1 amounted to 622 nM; in the assay with BxPC-3 it was 659 nM; with Capan-1, 2030 nM; with Colo-357, 1070 nM; in the assay on Dan-G, 1630 nM; in the assay on FAMPAC, 1010 nM. Besides, the EC50 is 1280 nM in the assay on HPDE; 8310 nM with HuP-T4; 400 nM in the assay on MiaPaCa-2; 2200 nM with PANC-1; 827 nM in the assay with PSN-1; 274 nM in the assay with PaTu-8988-T. In addition, the 50% effective concentration (EC50) in the assay on Suit2-07 was 320 nM.

`Cc1ccc(C(=O)OCc2ccc([C@@H](CN)C(=O)Nc3ccc4cnccc4c3)cc2)c(C)c1` [Netarsudil]: the EC50 is 6090 nM with AsPC-1; 4970 nM in the assay with BxPC-3; greater than 10000 nM with Capan-1; 5250 nM in the assay on Colo-357; 1590 nM in the assay with Dan-G; 5930 nM in the assay with FAMPAC. The EC50 in the assay with HPDE was greater than 10000 nM; in the assay on HuP-T4, 5200 nM; in the assay with MiaPaCa-2 it was 3630 nM; with PANC-1, 10000 nM; in the assay on PSN-1, greater than 10000 nM; with PaTu-8988-T it was 4320 nM. Also, the EC50 in the assay on Suit2-07 was greater than 10000 nM.

For the compound `CN1CCN(c2ccc3nc(-c4c(N)c5c(F)cccc5[nH]c4=O)[nH]c3c2)CC1` [Dovitinib], the EC50 is greater than 10000 nM with AsPC-1; 4250 nM in the assay on Capan-1; 4350 nM in the assay with Colo-357; 3430 nM with Dan-G; 2170 nM with FAMPAC; 4540 nM in the assay with HPDE. Besides, the EC50 in the assay on HuP-T4 is 3570 nM; in the assay with MiaPaCa-2 it was 1680 nM; in the assay on PANC-1, 4250 nM; in the assay on PSN-1 it was 2720 nM; in the assay with PaTu-8988-T it was 3150 nM; in the assay on Suit2-07, 863 nM.

Take `Cc1cc(Nc2ncc(Cl)c(Nc3ccccc3S(=O)(=O)C(C)C)n2)c(OC(C)C)cc1C1CCNCC1` [Ceritinib]: the EC50 amounted to 784 nM with AsPC-1; 2870 nM in the assay on BxPC-3; 5480 nM with Capan-1; 2930 nM in the assay with Colo-357; 2470 nM in the assay with Dan-G; 2770 nM in the assay on FAMPAC. In addition, the EC50 with HPDE is 1550 nM; in the assay with HuP-T4, greater than 10000 nM; in the assay with MiaPaCa-2, 563 nM; with PANC-1, greater than 10000 nM; with PSN-1, 3390 nM; in the assay on PaTu-8988-T, 1450 nM. Besides, in the assay with Suit2-07, the concentration giving a half-maximal response (EC50) was found to be 4690 nM.

On to `C=CC(=O)Nc1cccc(Nc2nc(Nc3ccc(N4CCN(C(C)=O)CC4)cc3OC)ncc2C(F)(F)F)c1` [Rociletinib], for which the EC50 in the assay on AsPC-1 is 8730 nM; in the assay on BxPC-3, 4820 nM; with Capan-1 it was 6270 nM; with Colo-357, 7270 nM; in the assay on Dan-G it was 6290 nM; in the assay with FAMPAC, 3580 nM. The concentration for a half-maximal effect (EC50) was 3460 nM with HPDE; greater than 10000 nM in the assay with HuP-T4; 2370 nM with MiaPaCa-2; 7120 nM in the assay on PANC-1; 2080 nM with PSN-1; 4940 nM in the assay with PaTu-8988-T. In addition, the EC50 in the assay with Suit2-07 was found to be 2750 nM.
